The source of these data is ChEMBL document CHEMBL5365445, “Discovery of a photosensitizing PI3K inhibitor for tumor therapy: Design, synthesis and in vitro biological evaluation” (Bioorg Med Chem Lett, 2023).

The subject of series [1] is B16. Nature of the series: Induction of apoptosis in mouse B16 cells assessed as early apoptotic cells at 15 uM incubated for 48 hrs irradiated with 365 nm for 4 mins by annexin-V/propidium iodide staining based flow cytometry analysis (reference value: 2.38 %). Format: functional. For orientation: In flow cytometry, cells or beads pass a laser one at a time.
The test system of series [2] is B16. Nature of the series: Induction of apoptosis in mouse B16 cells assessed as early apoptotic cells at 10 uM incubated for 48 hrs irradiated with 365 nm for 4 mins by annexin-V/propidium iodide staining based flow cytometry analysis (reference value: 2.38 %). Format: functional.
Series [3] deals with B16. The series can be described thus: Induction of apoptosis in mouse B16 cells assessed as necrotic cells at 15 uM incubated for 48 hrs irradiated with 365 nm for 4 mins by annexin-V/propidium iodide staining based flow cytometry analysis (reference value: 0.07 %). Format: functional.
Series [4] deals with T1, Phosphatidylinositol 4,5-bisphosphate 3-kinase catalytic subunit delta isoform (Homo sapiens, UniProt O00329).
T1 sequence (O00329 whole entry): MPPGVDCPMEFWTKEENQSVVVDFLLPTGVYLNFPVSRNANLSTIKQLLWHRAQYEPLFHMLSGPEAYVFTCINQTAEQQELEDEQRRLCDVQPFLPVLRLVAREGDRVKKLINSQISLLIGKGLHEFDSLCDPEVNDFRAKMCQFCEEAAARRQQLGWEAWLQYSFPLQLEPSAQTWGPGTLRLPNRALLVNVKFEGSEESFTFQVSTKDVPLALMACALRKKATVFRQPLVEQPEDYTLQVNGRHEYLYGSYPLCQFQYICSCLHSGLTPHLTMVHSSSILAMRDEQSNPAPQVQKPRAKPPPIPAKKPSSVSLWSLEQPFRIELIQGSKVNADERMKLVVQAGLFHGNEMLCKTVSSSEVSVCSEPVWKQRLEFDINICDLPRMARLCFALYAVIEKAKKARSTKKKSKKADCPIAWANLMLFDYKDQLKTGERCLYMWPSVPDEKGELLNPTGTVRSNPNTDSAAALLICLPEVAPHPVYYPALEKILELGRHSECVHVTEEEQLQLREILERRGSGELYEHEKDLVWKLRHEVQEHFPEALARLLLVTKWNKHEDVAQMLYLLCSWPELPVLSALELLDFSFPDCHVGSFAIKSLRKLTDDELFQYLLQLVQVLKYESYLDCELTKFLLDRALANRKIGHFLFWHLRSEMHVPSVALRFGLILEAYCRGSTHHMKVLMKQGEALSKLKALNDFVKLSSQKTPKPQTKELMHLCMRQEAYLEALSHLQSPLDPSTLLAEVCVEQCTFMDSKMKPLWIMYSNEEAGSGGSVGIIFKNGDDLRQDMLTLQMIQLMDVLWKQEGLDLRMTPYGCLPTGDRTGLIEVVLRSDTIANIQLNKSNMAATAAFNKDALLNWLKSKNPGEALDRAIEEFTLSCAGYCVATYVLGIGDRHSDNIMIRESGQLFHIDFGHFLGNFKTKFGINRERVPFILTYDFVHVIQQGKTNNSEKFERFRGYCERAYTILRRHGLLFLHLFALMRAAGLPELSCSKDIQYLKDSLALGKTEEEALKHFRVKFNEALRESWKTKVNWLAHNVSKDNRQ
The series can be described thus: Inhibition of PI3Kdelta (unknown origin).

Series [5] deals with B16. The series can be described thus: Induction of apoptosis is in mouse B16 cells assessed as late apoptotic cells at 10 uM incubated for 48 hrs by annexin-V/propidium iodide staining based flow cytometry analysis (reference value: 1.15 %). Format: functional.
For series [6], the target named is T2, Phosphatidylinositol 3-kinase (Mus musculus) (UniProt P26450+P42337). The series can be described thus: Inhibition of PI3K in mouse B16 cells assessed as reduction in MCL-1 protein expression incubated for 24 hrs by Western blot analysis. Format: cell-based. Conditions: dose 10-15 µM.
Series [7] concerns B16. The series can be described thus: Induction of apoptosis in mouse B16 cells assessed as viable cells at 15 uM incubated for 48 hrs irradiated with 365 nm for 4 mins by annexin-V/propidium iodide staining based flow cytometry analysis (reference value: 96.7 %). Format: functional. To be noted: B16, light or radiation study, read-out: Activity.
The target in series [8] is Phosphatidylinositol 4,5-bisphosphate 3-kinase catalytic subunit alpha isoform (Homo sapiens, UniProt P42336). The series can be described thus: Inhibition of PI3Kalpha (unknown origin).
Series [9] has as its system B16. Nature of the series: Induction of apoptosis in mouse B16 cells assessed as late apoptotic cells at 15 uM incubated for 48 hrs irradiated with 365 nm for 4 mins by annexin-V/propidium iodide staining based flow cytometry analysis (reference value: 0.84 %). Format: functional.
In series [10] the test system is B16. Nature of the series: Induction of apoptosis in mouse B16 cells assessed as necrotic cells at 10 uM incubated for 48 hrs irradiated with 365 nm for 4 mins by annexin-V/propidium iodide staining based flow cytometry analysis (reference value: 0.07 %). Format: functional.
The subject of series [11] is B16. The series can be described thus: Induction of apoptosis in mouse B16 cells assessed as early apoptotic cells at 10 uM incubated for 48 hrs by annexin-V/propidium iodide staining based flow cytometry analysis (reference value: 1.39 %). Format: functional.
A short description of series [12]: Retention time of the compound under 365 nm UV light irradiation by HPLC analysis. Format: physicochemical.
Series [13] has as its system B16. Nature of the series: Induction of apoptosis in mouse B16 cells assessed as viable cells at 10 uM incubated for 48 hrs irradiated with 365 nm for 4 mins by annexin-V/propidium iodide staining based flow cytometry analysis (reference value: 96.7 %). Format: functional. To be noted: B16, light or radiation study, read-out: Activity.
The subject of series [14] is B16. Nature of the series: Induction of apoptosis in mouse B16 cells assessed as viable at 15 uM incubated for 48 hrs by annexin-V/propidium iodide staining based flow cytometry analysis (reference value: 97.4 %). Format: functional.
In series [15] the target is T2, Phosphatidylinositol 3-kinase (Mus musculus). Nature of the series: Inhibition of PI3K in mouse B16 cells assessed as reduction in phosphorylation of AKT at T308 residue at 10 to 15 uM incubated for 24 hrs irradiated with 365 nm uv light for 4 min by Western blot analysis. Format: cell-based. Conditions: dose 10-15 µM.
Series [16] concerns B16. The series can be described thus: Induction of cell cycle arrest in mouse B16 cells assessed as cells accumulation at G2/M phase at 10 to 15 uM incubated for 24 hrs by flow cytometry analysis. Format: functional, cell-based. To be noted: dose 10-15 µM.
The subject of series [17] is B16. Nature of the series: Induction of apoptosis is in mouse B16 cells assessed as necrotic cells at 15 uM incubated for 48 hrs by annexin-V/propidium iodide staining based flow cytometry analysis (reference value: 0.01 %). Format: functional.
The target of series [18] is T2, Phosphatidylinositol 3-kinase (Mus musculus). The series can be described thus: Inhibition of PI3K in mouse B16 cells assessed as reduction in phosphorylation of AKT at […] residue at 10 to 15 uM incubated for 24 hrs irradiated with 365 nm uv light for 4 min by Western blot analysis. To be noted: dose 10-15 µM. Format: cell-based. A general note: In western blotting, separated proteins are transferred to a membrane and probed.

The target in series [19] is Phosphatidylinositol 4,5-bisphosphate 3-kinase catalytic subunit gamma isoform (Homo sapiens, UniProt P48736). The series can be described thus: Inhibition of PI3Kgamma (unknown origin).
Series [20] deals with B16. The series can be described thus: Induction of apoptosis in mouse B16 cells assessed as viable at 10 uM incubated for 48 hrs by annexin-V/propidium iodide staining based flow cytometry analysis (reference value: 97.4 %). Format: functional.
Series [21] has as its system B16. The series can be described thus: Induction of apoptosis in mouse B16 cells assessed as late apoptotic cells at 10 uM incubated for 48 hrs irradiated with 365 nm for 4 mins by annexin-V/propidium iodide staining based flow cytometry analysis (reference value: 0.84 %). Format: functional.
In series [22] the target is Phosphatidylinositol 4,5-bisphosphate 3-kinase catalytic subunit beta isoform (Homo sapiens, UniProt P42338). Nature of the series: Inhibition of PI3Kbeta (unknown origin).
In series [23] the target is T2, Phosphatidylinositol 3-kinase (Mus musculus). Nature of the series: Inhibition of PI3K in mouse B16 cells assessed as reduction in phosphorylation of AKT at T308 residue incubated for 24 hrs by Western blot analysis. Format: cell-based. Conditions: dose 10-15 µM.
For series [24], the system named is B16. The series can be described thus: Induction of apoptosis in mouse B16 cells assessed as early apoptotic cells at 15 uM incubated for 48 hrs by annexin-V/propidium iodide staining based flow cytometry analysis (reference value: 1.39 %). Format: functional.
The test system of series [25] is B16. The series can be described thus: Induction of apoptosis is in mouse B16 cells assessed as late apoptotic cells at 15 uM incubated for 48 hrs by annexin-V/propidium iodide staining based flow cytometry analysis (reference value: 1.15 %). Format: functional.
Series [26] has as its target T2, Phosphatidylinositol 3-kinase (Mus musculus). Nature of the series: Inhibition of PI3K in mouse B16 cells assessed as reduction in phosphorylation of AKT at […] residue incubated for 24 hrs by Western blot analysis. Format: cell-based. To be noted: dose 10-15 µM.
Series [27] has as its system B16. The series can be described thus: Induction of cell cycle arrest in mouse B16 cells assessed as cells accumulation at G2/M phase at 10 to 15 uM incubated for 24 hrs irradiated with 365 nm for 4 mins by flow cytometry analysis. Format: functional, cell-based. To be noted: dose 10-15 µM.
Series [28] can be described thus: Photorelease activity in PBS assessed as N-(2-chloro-5-(1H-pyrazolo[3,4-b]pyridin-5-yl)pyridin-3-yl) benzene sulfonamide release irradiated with 254 nm incubated for 12 mins by HPLC analysis.
Series [29] deals with B16. Nature of the series: Induction of apoptosis is in mouse B16 cells assessed as necrotic cells at 10 uM incubated for 48 hrs by annexin-V/propidium iodide staining based flow cytometry analysis (reference value: 0.01 %). Format: functional.
Series [30] has as its target T2, Phosphatidylinositol 3-kinase (Mus musculus). The series can be described thus: Inhibition of PI3K in mouse B16 cells assessed as reduction in MCL-1 protein expression at 10 to 15 uM incubated for 24 hrs irradiated with 365 nm uv light for 4 min by Western blot analysis. Format: cell-based. Conditions: dose 10-15 µM.
Series [31] deals with B16. The series can be described thus: Induction of apoptosis in mouse B16 cells assessed as increase in apoptotic cells at 10 uM incubated for 48 hrs by annexin-V/propidium iodide staining based flow cytometry analysis. Format: functional.
Series [32] deals with B16. Nature of the series: Antiproliferative activity against mouse B16 cells assessed as reduction in cell viability incubated for 48 hrs irradiated with 365 nm uv light for 4 min by CCK-8 assay. Format: functional, cell-based. To be noted: B16, light or radiation study. (Tetrazolium dyes change colour on reduction, which living cells bring about.)
The target in series [33] is T2, Phosphatidylinositol 3-kinase (Mus musculus). The series can be described thus: Inhibition of PI3K in mouse B16 cells assessed as reduction in MCL-1 protein expression at 10 to 15 uM incubated for 24 hrs by Western blot analysis. Format: cell-based. To be noted: dose 10-15 µM.
For series [34] the target is unchanged. The series can be described thus: Inhibition of PI3K in mouse B16 cells assessed as reduction in phosphorylation of AKT at […] residue at 10 to 15 uM incubated for 24 hrs by Western blot analysis. Format: cell-based. To be noted: dose 10-15 µM.
Series [35] has the same target. Nature of the series: Inhibition of PI3K in mouse B16 cells assessed as reduction in phosphorylation of AKT at T308 residue at 10 to 15 uM incubated for 24 hrs by Western blot analysis. Format: cell-based. To be noted: dose 10-15 µM.

pIC50: −log10 of the molar value. Calls of active or inactive are those of the source. The rule behind the calls is not given here. Some results are limits rather than exact numbers.

T2 sequence (P26450 whole entry, looked up): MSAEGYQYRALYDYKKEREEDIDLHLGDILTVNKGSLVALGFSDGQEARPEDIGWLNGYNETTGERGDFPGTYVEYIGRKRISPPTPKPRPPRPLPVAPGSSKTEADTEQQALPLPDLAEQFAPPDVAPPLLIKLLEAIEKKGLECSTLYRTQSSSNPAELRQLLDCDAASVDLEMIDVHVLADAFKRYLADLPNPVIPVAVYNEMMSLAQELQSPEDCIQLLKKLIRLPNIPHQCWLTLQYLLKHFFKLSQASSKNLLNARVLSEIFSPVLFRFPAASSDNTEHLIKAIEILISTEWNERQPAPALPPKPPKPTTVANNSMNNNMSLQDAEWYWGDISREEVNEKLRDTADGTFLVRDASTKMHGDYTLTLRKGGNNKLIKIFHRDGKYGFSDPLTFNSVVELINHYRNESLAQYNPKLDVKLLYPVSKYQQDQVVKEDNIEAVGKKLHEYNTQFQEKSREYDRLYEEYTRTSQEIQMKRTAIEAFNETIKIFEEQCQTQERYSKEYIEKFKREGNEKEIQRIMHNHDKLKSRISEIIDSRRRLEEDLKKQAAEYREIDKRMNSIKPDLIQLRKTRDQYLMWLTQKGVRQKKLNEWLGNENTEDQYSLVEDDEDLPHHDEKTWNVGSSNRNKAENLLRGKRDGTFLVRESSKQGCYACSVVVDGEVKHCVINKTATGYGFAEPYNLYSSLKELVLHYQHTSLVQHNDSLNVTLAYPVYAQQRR
T2 sequence (P42337 whole entry, looked up): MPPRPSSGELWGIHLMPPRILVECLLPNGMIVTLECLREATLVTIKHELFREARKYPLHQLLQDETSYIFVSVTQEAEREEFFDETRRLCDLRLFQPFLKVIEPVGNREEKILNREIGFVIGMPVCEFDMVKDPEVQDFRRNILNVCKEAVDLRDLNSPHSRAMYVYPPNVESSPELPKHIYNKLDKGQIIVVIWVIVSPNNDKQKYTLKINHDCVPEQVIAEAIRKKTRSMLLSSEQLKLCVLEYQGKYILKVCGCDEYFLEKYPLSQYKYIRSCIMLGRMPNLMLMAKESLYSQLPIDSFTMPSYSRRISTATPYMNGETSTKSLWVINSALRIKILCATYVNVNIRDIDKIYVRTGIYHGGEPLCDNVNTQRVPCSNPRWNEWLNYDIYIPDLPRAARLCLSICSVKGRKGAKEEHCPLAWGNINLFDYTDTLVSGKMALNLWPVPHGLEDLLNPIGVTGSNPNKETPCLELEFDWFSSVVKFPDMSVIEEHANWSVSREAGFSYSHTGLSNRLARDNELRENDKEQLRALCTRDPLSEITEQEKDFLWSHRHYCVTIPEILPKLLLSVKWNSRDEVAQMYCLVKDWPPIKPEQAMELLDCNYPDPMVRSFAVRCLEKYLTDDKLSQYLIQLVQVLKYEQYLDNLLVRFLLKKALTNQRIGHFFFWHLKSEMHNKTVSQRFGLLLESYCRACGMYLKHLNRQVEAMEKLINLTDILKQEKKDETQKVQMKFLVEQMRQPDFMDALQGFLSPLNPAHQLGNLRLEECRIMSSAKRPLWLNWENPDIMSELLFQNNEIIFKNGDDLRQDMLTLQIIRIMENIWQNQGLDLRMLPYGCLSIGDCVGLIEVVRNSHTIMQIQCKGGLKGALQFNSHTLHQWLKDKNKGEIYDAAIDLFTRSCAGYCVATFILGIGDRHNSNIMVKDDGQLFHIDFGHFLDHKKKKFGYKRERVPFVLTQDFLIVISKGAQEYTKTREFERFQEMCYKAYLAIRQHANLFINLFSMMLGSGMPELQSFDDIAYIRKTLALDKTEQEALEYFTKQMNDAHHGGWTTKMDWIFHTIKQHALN
Sequence of Phosphatidylinositol 4,5-bisphosphate 3-kinase catalytic subunit alpha isoform (P42336 whole entry, canonical isoform): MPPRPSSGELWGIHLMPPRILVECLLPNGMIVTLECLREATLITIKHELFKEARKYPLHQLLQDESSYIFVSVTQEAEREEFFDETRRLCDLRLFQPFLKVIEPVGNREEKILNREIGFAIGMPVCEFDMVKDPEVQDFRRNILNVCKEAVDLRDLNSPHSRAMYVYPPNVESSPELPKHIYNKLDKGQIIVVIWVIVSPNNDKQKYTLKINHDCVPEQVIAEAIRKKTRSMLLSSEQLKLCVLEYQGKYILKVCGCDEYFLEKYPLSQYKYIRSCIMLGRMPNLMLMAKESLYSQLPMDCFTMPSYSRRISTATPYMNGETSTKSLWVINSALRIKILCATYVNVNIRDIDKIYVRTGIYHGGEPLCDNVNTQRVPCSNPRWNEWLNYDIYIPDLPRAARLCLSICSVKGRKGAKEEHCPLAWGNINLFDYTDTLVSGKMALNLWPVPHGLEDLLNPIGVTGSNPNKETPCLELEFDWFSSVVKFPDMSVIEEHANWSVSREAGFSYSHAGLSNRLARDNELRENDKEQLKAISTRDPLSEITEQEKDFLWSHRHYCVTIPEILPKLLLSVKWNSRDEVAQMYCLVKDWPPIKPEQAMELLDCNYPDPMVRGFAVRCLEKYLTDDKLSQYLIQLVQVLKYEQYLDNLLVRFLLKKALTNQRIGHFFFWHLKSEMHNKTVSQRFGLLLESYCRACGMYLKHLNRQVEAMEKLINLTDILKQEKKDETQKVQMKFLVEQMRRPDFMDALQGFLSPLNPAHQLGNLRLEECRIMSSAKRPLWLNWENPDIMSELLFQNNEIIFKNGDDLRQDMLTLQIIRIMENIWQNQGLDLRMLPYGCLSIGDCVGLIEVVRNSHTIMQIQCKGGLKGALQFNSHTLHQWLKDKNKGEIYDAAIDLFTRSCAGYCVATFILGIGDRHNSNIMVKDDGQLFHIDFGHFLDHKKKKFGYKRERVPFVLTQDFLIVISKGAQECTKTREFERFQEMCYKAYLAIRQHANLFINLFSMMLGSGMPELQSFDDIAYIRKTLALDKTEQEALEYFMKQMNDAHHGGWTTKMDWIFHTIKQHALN
Sequence of Phosphatidylinositol 4,5-bisphosphate 3-kinase catalytic subunit gamma isoform (P48736 whole entry, canonical isoform): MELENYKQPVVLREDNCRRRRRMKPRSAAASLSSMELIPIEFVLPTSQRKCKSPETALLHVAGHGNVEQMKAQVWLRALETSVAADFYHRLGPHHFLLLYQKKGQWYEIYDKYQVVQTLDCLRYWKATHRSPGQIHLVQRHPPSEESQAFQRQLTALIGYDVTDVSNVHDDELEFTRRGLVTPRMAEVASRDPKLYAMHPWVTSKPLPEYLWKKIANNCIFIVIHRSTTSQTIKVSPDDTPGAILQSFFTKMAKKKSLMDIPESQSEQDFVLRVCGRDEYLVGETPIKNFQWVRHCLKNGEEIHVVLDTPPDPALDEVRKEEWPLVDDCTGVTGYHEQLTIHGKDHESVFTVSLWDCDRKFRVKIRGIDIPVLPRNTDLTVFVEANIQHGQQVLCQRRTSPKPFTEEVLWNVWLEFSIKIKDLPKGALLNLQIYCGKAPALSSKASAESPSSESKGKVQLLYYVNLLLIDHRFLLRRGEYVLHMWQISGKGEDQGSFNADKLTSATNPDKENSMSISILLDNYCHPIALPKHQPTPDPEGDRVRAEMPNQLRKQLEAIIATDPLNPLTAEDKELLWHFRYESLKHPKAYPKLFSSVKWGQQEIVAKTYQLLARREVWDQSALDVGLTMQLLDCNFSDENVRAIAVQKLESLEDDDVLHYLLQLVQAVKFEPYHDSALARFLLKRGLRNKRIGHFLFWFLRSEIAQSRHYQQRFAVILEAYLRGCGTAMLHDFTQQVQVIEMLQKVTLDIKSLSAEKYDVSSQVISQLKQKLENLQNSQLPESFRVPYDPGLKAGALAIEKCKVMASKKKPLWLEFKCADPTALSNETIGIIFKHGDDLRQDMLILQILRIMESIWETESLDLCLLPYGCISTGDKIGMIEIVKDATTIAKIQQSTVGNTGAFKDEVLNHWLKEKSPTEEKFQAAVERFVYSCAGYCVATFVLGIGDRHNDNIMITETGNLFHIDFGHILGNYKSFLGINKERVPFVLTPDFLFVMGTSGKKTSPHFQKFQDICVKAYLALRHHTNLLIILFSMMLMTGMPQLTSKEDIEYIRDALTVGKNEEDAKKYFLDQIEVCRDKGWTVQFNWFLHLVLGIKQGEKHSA
Sequence of Phosphatidylinositol 4,5-bisphosphate 3-kinase catalytic subunit beta isoform (P42338 whole entry, canonical isoform): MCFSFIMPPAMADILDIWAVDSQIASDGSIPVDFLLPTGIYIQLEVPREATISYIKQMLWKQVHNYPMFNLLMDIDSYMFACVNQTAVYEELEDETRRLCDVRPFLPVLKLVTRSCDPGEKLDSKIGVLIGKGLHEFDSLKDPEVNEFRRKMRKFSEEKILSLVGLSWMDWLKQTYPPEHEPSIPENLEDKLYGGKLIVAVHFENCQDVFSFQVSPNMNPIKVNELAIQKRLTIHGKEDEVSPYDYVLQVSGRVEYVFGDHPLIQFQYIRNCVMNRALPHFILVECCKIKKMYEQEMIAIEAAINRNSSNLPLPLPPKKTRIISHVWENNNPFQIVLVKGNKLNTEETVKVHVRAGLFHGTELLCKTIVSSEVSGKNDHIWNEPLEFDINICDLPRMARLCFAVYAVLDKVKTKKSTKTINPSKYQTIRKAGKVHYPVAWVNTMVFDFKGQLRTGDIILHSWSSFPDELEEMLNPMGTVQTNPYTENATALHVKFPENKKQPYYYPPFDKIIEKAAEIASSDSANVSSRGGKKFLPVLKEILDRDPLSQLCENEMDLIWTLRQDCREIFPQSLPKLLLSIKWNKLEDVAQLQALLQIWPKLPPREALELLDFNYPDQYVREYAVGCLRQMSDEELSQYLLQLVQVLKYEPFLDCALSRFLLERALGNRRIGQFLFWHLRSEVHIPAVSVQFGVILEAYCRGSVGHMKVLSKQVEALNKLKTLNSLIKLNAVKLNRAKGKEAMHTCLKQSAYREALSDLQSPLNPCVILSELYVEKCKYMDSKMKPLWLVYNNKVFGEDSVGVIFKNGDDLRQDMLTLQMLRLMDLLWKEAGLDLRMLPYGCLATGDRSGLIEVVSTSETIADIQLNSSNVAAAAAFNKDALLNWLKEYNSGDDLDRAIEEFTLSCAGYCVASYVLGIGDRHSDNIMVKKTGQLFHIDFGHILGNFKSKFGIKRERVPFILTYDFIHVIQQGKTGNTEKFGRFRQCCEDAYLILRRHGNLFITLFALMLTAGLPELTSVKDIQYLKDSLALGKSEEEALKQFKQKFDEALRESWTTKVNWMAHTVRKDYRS

In general, pIC50 refers to the IC50 on a negative log10 scale, so that one unit is a factor of ten. `COc1cc(COC(=O)n2ncc3cc(-c4cnc(Cl)c(NS(=O)(=O)c5ccccc5)c4)cnc32)c([N+](=O)[O-])cc1OC`: the Activity with B16 [1] stood at 14.4%; with B16 [2] it was 8.04%; in the series with B16 [3] it was 1.27%; in the series with B16 [5], 1.25%; with B16 [9], 14.7%; in the series with B16 [10], 0%. Besides, the Activity with B16 [11] was 3.16%; with B16 [14], 88.1%; with B16 [17], 1.3%; in the series on B16 [20], 95.6%; with B16 [21], 3.49%; in the series on B16 [24], 7.13%. Further, the Activity is given as 3.42% with B16 [25], 0% with B16 [29] and under 10% with B16 [31]. Further, the pIC50 is 7.85 in [4]; 7.37 in [8]; 7.08 in [19]; 7.08 in [22]; 5.06 in the series on B16 [32]. The inhibition entry in series [6], in [23] and in series [26] was “Dose-Dependent Effect” each time. For the same compound, the viability at 15 µM in the series on B16 [7] was 69.6%. This compound also displayed a Retention_time in series [12] of 10.4 min. Further, in the series with B16 [13], the viability at 10 µM is 88.5%. Further, the inhibition result in series [15], in [18] and in [30] was “Active” throughout. The result in the series with B16 [16] and with B16 [27] was Active. In series [28], the Drug metabolism is over 98%.
In the case of `O=S(=O)(Nc1cc(-c2cnc3[nH]ncc3c2)cnc1Cl)c1ccccc1`, the inhibition result in series [33], in series [34] and in series [35] was “Active” throughout. Besides, the Retention_time in series [12] was 7.9 min.
